Measured values: publication PMC3275754, “Pregnenolone sulphate-independent inhibition of TRPM3 channels by progesterone” (Cell Calcium, 2012)

How the values were obtained:
Format in all cases: cell-based
[1] = molecular target: T1, Transient Receptor Potential Melastatin 3 (TRPM3) (Homo sapiens, UniProt Q9HCF6); test: Ca2+ measurement; […] inhibits PregS-evoked but not nifedipine-evoked TRPM3 activity; design: human TRPM3 expressed in HEK 293 cells
[2] = molecular target: T1, Transient Receptor Potential Melastatin 3 (TRPM3); test: Overlay binding assay with lysate of HEK […] cells expressing TRPM3-YFP; design: human TRPM3 tagged with YFP
[3] = molecular target: T1, Transient Receptor Potential Melastatin 3 (TRPM3); test: Ca2+ measurement and whole-cell patch-clamp inhibition; steroid overlay binding of TRPM3-YFP lysate; design: human TRPM3 expressed in HEK 293 cells; TRPM3-YFP for overlay

T1 sequence (Q9HCF6 whole entry): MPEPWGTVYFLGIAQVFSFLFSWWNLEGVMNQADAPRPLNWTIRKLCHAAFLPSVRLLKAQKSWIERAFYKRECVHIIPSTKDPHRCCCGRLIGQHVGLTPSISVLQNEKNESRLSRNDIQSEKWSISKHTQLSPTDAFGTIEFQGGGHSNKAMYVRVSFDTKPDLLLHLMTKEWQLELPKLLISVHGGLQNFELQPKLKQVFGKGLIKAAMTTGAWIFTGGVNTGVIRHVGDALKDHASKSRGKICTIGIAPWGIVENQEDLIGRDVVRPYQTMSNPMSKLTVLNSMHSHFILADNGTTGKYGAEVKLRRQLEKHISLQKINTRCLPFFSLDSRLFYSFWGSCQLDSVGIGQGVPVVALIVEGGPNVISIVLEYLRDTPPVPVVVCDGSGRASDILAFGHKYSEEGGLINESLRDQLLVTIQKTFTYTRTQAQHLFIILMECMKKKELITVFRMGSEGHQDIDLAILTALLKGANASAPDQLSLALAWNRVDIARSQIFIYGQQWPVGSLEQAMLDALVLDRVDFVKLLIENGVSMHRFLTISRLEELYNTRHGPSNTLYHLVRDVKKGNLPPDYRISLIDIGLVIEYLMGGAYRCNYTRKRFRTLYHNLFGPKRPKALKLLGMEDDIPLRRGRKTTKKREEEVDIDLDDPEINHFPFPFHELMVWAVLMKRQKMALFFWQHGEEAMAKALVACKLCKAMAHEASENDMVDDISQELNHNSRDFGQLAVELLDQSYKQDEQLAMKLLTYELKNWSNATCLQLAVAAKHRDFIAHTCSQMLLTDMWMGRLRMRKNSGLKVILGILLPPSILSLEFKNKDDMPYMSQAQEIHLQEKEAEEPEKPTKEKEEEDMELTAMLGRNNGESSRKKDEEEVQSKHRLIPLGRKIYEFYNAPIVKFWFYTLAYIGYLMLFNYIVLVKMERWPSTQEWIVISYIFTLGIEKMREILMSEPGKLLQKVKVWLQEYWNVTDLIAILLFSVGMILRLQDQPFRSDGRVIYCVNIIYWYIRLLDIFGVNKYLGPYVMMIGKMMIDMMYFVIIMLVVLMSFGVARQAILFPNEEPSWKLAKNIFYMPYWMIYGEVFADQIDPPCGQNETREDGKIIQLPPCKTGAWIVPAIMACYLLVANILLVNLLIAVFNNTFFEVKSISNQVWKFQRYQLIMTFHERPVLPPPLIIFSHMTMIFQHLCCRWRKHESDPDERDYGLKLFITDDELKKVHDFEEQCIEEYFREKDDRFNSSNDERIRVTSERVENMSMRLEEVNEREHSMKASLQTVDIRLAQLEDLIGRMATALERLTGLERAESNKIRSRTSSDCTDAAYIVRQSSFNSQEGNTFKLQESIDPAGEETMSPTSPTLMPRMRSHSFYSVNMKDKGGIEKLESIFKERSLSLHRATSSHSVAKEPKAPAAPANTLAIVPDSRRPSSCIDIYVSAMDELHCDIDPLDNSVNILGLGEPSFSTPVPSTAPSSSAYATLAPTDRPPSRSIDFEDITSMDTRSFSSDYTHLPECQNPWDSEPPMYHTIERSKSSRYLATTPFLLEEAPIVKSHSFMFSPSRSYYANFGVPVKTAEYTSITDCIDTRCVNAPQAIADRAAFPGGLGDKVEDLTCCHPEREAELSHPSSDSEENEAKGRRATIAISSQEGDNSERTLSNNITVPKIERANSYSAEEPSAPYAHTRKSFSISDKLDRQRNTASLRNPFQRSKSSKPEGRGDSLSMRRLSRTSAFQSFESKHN

Compound: CS(=O)(=O)c1ccc(C(=O)Nc2ccc(N3CCCC3)cc2)c(Cl)c1 [2-CMNPBC, 2-chloro-4-(methylsulphonyl)-N-[4-(1 pyrrolidinyl)phenyl]benzenecarboxamide]
- Ca2+ measurement; 10 μM inhibits PregS-evoked but not nifedipine-evoked TRPM3 ac [1]: (2-CMNPBC, Fig. 9a), which also inhibited pregnenolone sulphate-evoked TRPM3 activity

Compound: CC(C)CCC[C@@H](C)[C@H]1CC[C@H]2[C@@H]3CC=C4C[C@@H](O)CC[C@]4(C)[C@H]3CC[C@]12C [cholesterol]
- Overlay binding assay with lysate of HEK 293 cells expressing TRPM3-YFP [2]: TRPM3 bound to pregnenolone sulphate, progesterone, nifedipine, dihydrotestosterone and cholesterol

Compound: CC(=O)[C@H]1CC[C@H]2[C@@H]3CCC4=CC(=O)CC[C@]4(C)[C@H]3CC[C@]12C [prog, progesterone]
- Ca2+ measurement and whole-cell patch-clamp inhibition; steroid overlay binding [3]: TRPM3 bound to pregnenolone sulphate, progesterone, nifedipine, dihydrotestosterone and cholesterol
